Assay results taken from patent US20170210741A1, “Benzimidazole Compounds, Use As Inhibitors of WNT Signaling Pathway in Cancers, and Methods for Preparation Thereof” (Southern Research Institute, priority 2016, published 2017).
Like-named read-outs stand apart in the source and are kept apart here.

Tests used:
Assay type in all cases: cell-based
[1] = test system: Wnt signaling; test: Wnt signaling reporter assay (Super8XTOPFlash luciferase) in LRP6-expressing HEK293 cells; settings: 24 h treatment, luciferase normalized to β-galactosidase; for IC50: Homo sapiens, read-out: IC50 (effects on Wnt signaling)
Method: HEK293 cells were plated into 24-well plates. After overnight culture, the cells were transiently transfected with 0.06 μg of the Super8XTOPFlash luciferase construct, 0.06 μg of β-galactosidase-expressing vector, and 0.06 μg of pCS-Myc-hLRP6 or control vector. After 24 h incubation, cells were treated with each individual compound in triplicate for 24 h. Cells were then lysed, and the luciferase and β-galactosidase activities were determined by the luciferase assay system (Promega) and β-galactosidase assay system (Promega), respectively. The luciferase activity was normalized to the β-galactosidase activity.
Table 2 below illustrates the effects of the disclosed compounds on Wnt signaling in LRP6-expressing HEK293 cells.

[2] = test system: Suit-2; test: In vitro cell viability assay (Cell Titer Glo), pancreatic cancer Suit-2; settings: 72 h
Method: (§1) Breast cancer SUM159 was obtained from Asterand and grown according to supplier's recommendation. All other cell lines were obtained from ATCC and cultured in standard cell culture conditions with complete cell culture medium containing 10% FBS.
(§2) Cancer cells were seeded into optically clear tissue culture-treated black 96-well plates (for adherent cells) or low-attachment 96-well plates (for cancer stem cells) at 2,000-5000 cells/50 μL of media per well. The cells were treated with Wnt inhibitors at 0.1 to 10 μM for 72 h. Cell viability was measured by the Cell Titer Glo Assay from Promega.

[3] = test system: S2VP10; test: In vitro cell viability assay (Cell Titer Glo), pancreatic cancer S2VP10; settings: 72 h
Method: as §1, §2

[4] = test system: HCT116; test: In vitro cell viability assay (Cell Titer Glo), colorectal cancer HCT116; settings: Homo sapiens, HCT-116, 72 h
Method: as §1, §2
(§3) Table 4 below illustrates the effects of the disclosed compounds on cell viability of colorectal cancer cell lines.

[5] = test system: HT-29; test: In vitro cell viability assay (Cell Titer Glo), colorectal cancer HT-29; settings: Homo sapiens, 72 h
Method: as §1, §2, §3

[6] = Suit-2, CSC enriching serum free medium, non-adherent plates, read-out: Cell viability (IC50) Suit-2 CSC
[7] = Suit-2, adherent, complete medium 10% FBS, read-out: Cell viability (IC50) Suit-2 Adherent
[8] = S2VP10, CSC enriching serum free medium, non-adherent plates, read-out: Cell viability (IC50) S2VP10 CSC
[9] = S2VP10, adherent, complete medium 10% FBS, read-out: Cell viability (IC50) S2VP10 Adherent
[10] = HCT116, CSC conditions, read-out: Cell viability (IC50) HCT116 CSC
[11] = HCT116, adherent, read-out: Cell viability (IC50) HCT116 Adherent
[12] = HT-29, CSC conditions, read-out: Cell viability (IC50) HT-29 CSC
[13] = HT-29, adherent, read-out: Cell viability (IC50) HT-29 Adherent

Row | Structure (SMILES) | IC50 [2, 6] [nM] | IC50 [2, 7] [nM] | IC50 [3, 8] [nM] | IC50 [3, 9] [nM] | IC50 [4, 10] [nM] | IC50 [4, 11] [nM] | IC50 [5, 12] [nM] | IC50 [5, 13] [nM] | IC50 (effects on Wnt signaling) [1] | IC50 [1] [nM]
1 | Cc1nccn1-c1ccc(-c2nc3cc(Cl)c(Cl)cc3[nH]2)cc1 [Compound 16, 5,6-dichloro-2-(4-(2-methyl-1H-imidazol-1-yl)phenyl)-1H-benzo[d]imidazole] | > 10000 | > 10000 | > 10000 | > 10000 |  |  |  |  |  | 
2 | Clc1cc2nc(-c3ccc(N4CCNCC4)cc3)[nH]c2cc1Cl [Compound 13, 5,6-dichloro-2-(4-(piperazin-1-yl)phenyl)-1H-benzo[d]imidazole] | > 10000 | > 10000 | > 10000 | > 10000 |  |  |  |  |  | 
3 | CN1CCN(c2ccc(-c3nc4cc(Cl)c(Cl)cc4[nH]3)cc2)CC1 [Compound 10, 5,6-Dichloro-2-(4-(4-methylpipcrazin-1-yl)phenyl)-1H-benzo[d]imidazole] | 1340 | 5260 | 910 | 4760 | 21000 | 11200 | 130 | 3290 |  | 13
4 | Clc1cc2nc(-c3ccc(N4CCCCC4)cc3)[nH]c2cc1Cl [Compound 11, 5,6-dichloro-2-(4-(piperidin-1-yl)phenyl)-1H-benzo[d]imidazole] | > 10000 | 970 | > 10000 | 1680 | 570 | 1010 | 40 | 670 |  | 0.95
5 | Cn1c(-c2ccc(OC(F)(F)F)cc2)nc2cc(Cl)c(Cl)cc21 [Compound 23, 5,6-dichloro-1-methyl-2-(4-(trifluoromethoxy)phenyl)-1H-benzo[d]imidazole] |  |  |  |  |  |  |  |  | Inactive | 
6 | Clc1cc2nc(-c3ccc(-n4ccnc4)cc3)[nH]c2cc1Cl [Compound 15, 2-(4-(1H-imidazol-1-yl)phenyl)-5,6-dichloro-1H-benzo[d]imidazole] | 1810 | > 10000 | 1340 | > 10000 |  |  |  |  |  | 
7 | CCN1CCN(c2ccc(-c3nc4cc(Cl)c(Cl)cc4[nH]3)cc2)CC1 [Compound 14, 5,6-dichloro-2-(4-(4-ethylpiperazin-1-yl)phenyl)-1H-benzo[d]imidazole] | 1230 | > 10000 | 1330 | > 10000 |  |  |  |  |  | 
8 | CN1CCN(c2ccc(-c3nc4ccc(F)cc4[nH]3)cc2)CC1 [Compound 19, 6-fluoro-2-(4-(4-methylpiperazin-1-yl)phenyl)-1H-benzo[d]imidazole] | 330 | 1340 | 350 | 790 |  |  |  |  | Inactive | 
9 | CN1CCN(c2ccc(-c3nc4ccc(C(F)(F)F)cc4[nH]3)cc2)CC1 [Compound 18, 2-(4-(4-methylpiperazin-1-yl)phenyl)-6-(trifluoromethyl)-1H-benzo[d]imidazole] | 760 | > 10000 | 1520 | 7160 |  |  |  |  | Inactive | 
10 | Oc1ccc(Cl)cc1-c1nc2cc(Cl)c(Cl)nc2[nH]1 [Compound 9, 4-Chloro-2-(5,6-dichloro-3H-imidazo[4,5-b]pyridin-2-yl)phenol] | > 10000 | > 10000 | 870 | 2240 | 510 | 2090 | 8950 | 9760 |  | 1850
11 | Fc1cc2nc(-c3ccc(OC(F)(F)F)cc3)[nH]c2cc1Cl [Compound 24, 6-chloro-5-fluoro-2-(4-(trifluoromethoxy)phenyl)-1H-benzo[d]imidazole] |  |  |  |  |  |  |  |  | Inactive | 

Further lines, with some results ahead:

Row | IC50 [2, 6] [nM] | IC50 [2, 7] [nM] | IC50 [3, 8] [nM] | IC50 [3, 9] [nM] | IC50 [4, 10] [nM] | IC50 [4, 11] [nM] | IC50 [5, 12] [nM] | IC50 [5, 13] [nM] | Structure (SMILES) | IC50 (effects on Wnt signaling) [1] | IC50 [1] [nM]
12 | 210 | 290 | 180 | 140 |  |  |  |  | CN1CCN(c2ccc(-c3nc4ccncc4[nH]3)cc2)CC1 [Compound 20, 2-(4-(4-methylpiperazin-1-yl)phenyl)-3H-imidazo[4,5-c]pyridine] | Inactive | 
13 | 940 | 950 | 750 | 510 | 160 | 580 | 40 | 590 | Fc1cc2[nH]c(-c3ccc(N4CCCC4)cc3)nc2cc1Cl [Compound 31, 5-chloro-6-fluoro-2-(4-(pyrrolidin-1-yl)phenyl)-1H-benzo[d]imidazole] |  | 330
14 | 2530 | 8660 | 2950 | > 10000 |  |  |  |  | FC(F)(F)c1cc(Cl)c2[nH]c(-c3ccc(N4CCCCC4)cc3)nc2c1 [Compound 36, 7-chloro-2-(4-(piperidin-1-yl)phenyl)-5-(trifluoromethyl)-1H-benzo[d]imidazole] | Inactive | 
15 | 1420 | 7560 | 1080 | > 10000 |  |  |  |  | FC(F)(F)c1ccc2[nH]c(-c3ccc(N4CCCCC4)cc3)nc2c1 [Compound 29, 2-(4-(piperidin-1-yl)phenyl)-5-(trifluoromethyl)-1H-benzo[d]imidazole] | Inactive | 
16 | 1990 | 8920 | 2910 | 8310 | 1760 | 830 |  | 140 | CN1CCN(c2ccc(-c3nc4cc(Cl)c(Cl)cc4[nH]3)cc2F)CC1 [Compound 27, 5,6-dichloro-2-(3-fluoro-4-(4-methylpiperazin-1-yl)phenyl)-1H-benzo[d]imidazole] |  | 4.67
17 | 240 | 9060 | 150 | > 10000 |  |  |  |  | FC(F)(F)c1cc(Cl)c2[nH]c(-c3ccc(N4CCCC4)cc3)nc2c1 [Compound 35, 7-chloro-2-(4-(pyrrolidin-1-yl)phenyl)-5-(trifluoromethyl)-1H-benzo[d]imidazole] | Inactive | 
18 | > 10000 | > 10000 | > 10000 | > 10000 |  |  |  |  | Clc1cc2nc(-c3ccc(N4CCCC4)cc3)[nH]c2nc1Cl [Compound 34, 5,6-dichloro-2-(4-(pyrrolidin-1-yl)phenyl)-3H-imidazo[4,5-b]pyridine] | Inactive | 
19 | 150 | 160 | 80 | 110 | 80 | 110 | 50 | 60 | c1cc2[nH]c(-c3ccc(N4CCCC4)cc3)nc2cn1 [Compound 28, 2-(4-(pyrrolidin-1-yl)phenyl)-1H-imidazo[4,5-c]pyridine] |  | 10400
20 | 2050 | 5630 | 2770 | 7200 |  |  |  |  | Fc1cc2[nH]c(-c3ccc(OC(F)(F)F)cc3)nc2cc1C(F)(F)F [Compound 25, 6-fluoro-2-(4-(trifluoromethoxy)phenyl)-5-(trifluoromethyl)-1H-benzo[d]imidazole] | Inactive | 
21 | > 10000 | > 10000 | > 10000 | > 10000 |  |  |  |  | Clc1cc2nc(-c3ccc(N4CCCCC4)cc3)[nH]c2nc1Cl [Compound 33, 5,6-dichloro-2-(4-(piperidin-1-yl)phenyl)-3H-imidazo[4,5-b]pyridine] | Inactive | 
22 | 550 | 5330 |  | 9250 |  |  |  |  | FC(F)(F)c1cc2nc(-c3ccc(N4CCCCC4)cc3)[nH]c2cc1Cl [Compound 37, 6-chloro-2-(4-(piperidin-1-yl)phenyl)-5-(trifluoromethyl)-1H-benzo[d]imidazole] | Inactive | 
23 | 1100 | 3870 | 600 | 5200 |  |  |  |  | FC(F)(F)c1cc2nc(-c3ccc(N4CCCC4)cc3)[nH]c2cc1Cl [Compound 32, 6-chloro-2-(4-(pyrrolidin-1-yl)phenyl)-5-(trifluoromethyl)-1H-benzo[d]imidazole] | Inactive | 
24 | 860 | 6440 | 950 | 6920 |  |  |  |  | FC(F)(F)Oc1ccc(-c2nc3cc(C(F)(F)F)c(Cl)cc3[nH]2)cc1 [Compound 26, 6-chloro-2-(4-(trifluoromethoxy)phenyl)-5-(trifluoromethyl)-1H-benzo[d]imidazole] | Inactive | 
25 | 70 | 80 |  | 60 |  |  |  |  | c1cc2nc(-c3ccc(N4CCCCC4)cc3)[nH]c2cn1 [Compound 30, 2-(4-(piperidin-1-yl)phenyl)-3H-imidazo[4,5-c]pyridine] | Inactive | 
